Data reported in the NIST ThermoML archive (doi:10.1016/j.fluid.2009.08.017).
Numbers after ± are expanded uncertainties.

Experiment: activity coefficient (dimensionless); of the first substance listed, at infinite dilution; xn = mol fraction of the nth substance listed
Conditions: 101 kPa, Liquid, Chromatography, x1 = 0

Structure (SMILES)	activity coefficient (298.15 K)	activity coefficient (308.15 K)	activity coefficient (318.15 K)	activity coefficient (328.15 K)	activity coefficient (338.15 K)	activity coefficient (348.15 K)	activity coefficient (358.15 K)	activity coefficient (368.15 K)
C1CCCCCC1 [cycloheptane] + CCCCCCOCn1cc[n+](C)c1.O=S(=O)([N-]S(=O)(=O)C(F)(F)F)C(F)(F)F	6.51 ± 0.44	6.15 ± 0.42	5.8 ± 0.4	5.49 ± 0.37	5.23 ± 0.36	5.02 ± 0.34	4.79 ± 0.33	4.6 ± 0.31
C1CCCCCC1 [cycloheptane] + CCCCCCOCn1cc[n+](COCCCCCC)c1.O=S(=O)([N-]S(=O)(=O)C(F)(F)F)C(F)(F)F	2.71 ± 0.18	2.6 ± 0.18	2.5 ± 0.17	2.41 ± 0.16	2.33 ± 0.16	2.25 ± 0.15	2.19 ± 0.15	2.12 ± 0.14
C1CCCCC1 [cyclohexane] + CCCCCCOCn1cc[n+](C)c1.O=S(=O)([N-]S(=O)(=O)C(F)(F)F)C(F)(F)F	5.44 ± 0.37	5.14 ± 0.35	4.87 ± 0.33	4.63 ± 0.32	4.43 ± 0.3	4.24 ± 0.29	4.07 ± 0.28	3.91 ± 0.27
C1CCCCC1 [cyclohexane] + CCCCCCOCn1cc[n+](COCCCCCC)c1.O=S(=O)([N-]S(=O)(=O)C(F)(F)F)C(F)(F)F	2.32 ± 0.16	2.22 ± 0.15	2.15 ± 0.15	2.08 ± 0.14	2.01 ± 0.14	1.94 ± 0.13	1.89 ± 0.13	1.84 ± 0.12
C1CCCCCCC1 [cyclooctane] + CCCCCCOCn1cc[n+](C)c1.O=S(=O)([N-]S(=O)(=O)C(F)(F)F)C(F)(F)F	8.12 ± 0.55	7.57 ± 0.52	7.11 ± 0.48	6.74 ± 0.46	6.35 ± 0.43	6.06 ± 0.41	5.75 ± 0.39	5.48 ± 0.37
C1CCCCCCC1 [cyclooctane] + CCCCCCOCn1cc[n+](COCCCCCC)c1.O=S(=O)([N-]S(=O)(=O)C(F)(F)F)C(F)(F)F	3.2 ± 0.22	3.06 ± 0.21	2.94 ± 0.2	2.82 ± 0.19	2.72 ± 0.19	2.63 ± 0.18	2.54 ± 0.17	2.47 ± 0.17
C1CCCC1 [cyclopentane] + CCCCCCOCn1cc[n+](C)c1.O=S(=O)([N-]S(=O)(=O)C(F)(F)F)C(F)(F)F	4.19 ± 0.29	3.99 ± 0.27	3.82 ± 0.26	3.66 ± 0.25	3.51 ± 0.24	3.38 ± 0.23	3.27 ± 0.22	3.16 ± 0.22
C1CCCC1 [cyclopentane] + CCCCCCOCn1cc[n+](COCCCCCC)c1.O=S(=O)([N-]S(=O)(=O)C(F)(F)F)C(F)(F)F	1.84 ± 0.12	1.78 ± 0.12	1.74 ± 0.12	1.69 ± 0.11	1.65 ± 0.11	1.61 ± 0.11	1.57 ± 0.1	1.54 ± 0.1
CCCCCCCCCC [decane] + CCCCCCOCn1cc[n+](C)c1.O=S(=O)([N-]S(=O)(=O)C(F)(F)F)C(F)(F)F	23.5 ± 1.6	21.7 ± 1.5	20.2 ± 1.4	18.9 ± 1.3	17.7 ± 1.2	16.7 ± 1.1	15.8 ± 1.1	14.9 ± 1
CCCCCCCCCC [decane] + CCCCCCOCn1cc[n+](COCCCCCC)c1.O=S(=O)([N-]S(=O)(=O)C(F)(F)F)C(F)(F)F	7.38 ± 0.5	7 ± 0.48	6.66 ± 0.45	6.38 ± 0.43	6.11 ± 0.42	5.87 ± 0.4	5.65 ± 0.39	5.46 ± 0.37
CCOCC [diethyl ether] + CCCCCCOCn1cc[n+](C)c1.O=S(=O)([N-]S(=O)(=O)C(F)(F)F)C(F)(F)F	1.35 ± 0.09	1.37 ± 0.09	1.38 ± 0.09	1.4 ± 0.09	1.41 ± 0.09	1.43 ± 0.09	1.44 ± 0.09	1.45 ± 0.1
CCOCC [diethyl ether] + CCCCCCOCn1cc[n+](COCCCCCC)c1.O=S(=O)([N-]S(=O)(=O)C(F)(F)F)C(F)(F)F	0.811 ± 0.052	0.826 ± 0.053	0.839 ± 0.054	0.854 ± 0.055	0.867 ± 0.055	0.879 ± 0.056	0.89 ± 0.057	0.904 ± 0.057
CCCOCCC [dipropyl ether] + CCCCCCOCn1cc[n+](C)c1.O=S(=O)([N-]S(=O)(=O)C(F)(F)F)C(F)(F)F	2.92 ± 0.2	2.89 ± 0.2	2.87 ± 0.2	2.85 ± 0.19	2.83 ± 0.19	2.81 ± 0.19	2.79 ± 0.19	2.77 ± 0.19
CCCOCCC [dipropyl ether] + CCCCCCOCn1cc[n+](COCCCCCC)c1.O=S(=O)([N-]S(=O)(=O)C(F)(F)F)C(F)(F)F	1.49 ± 0.098	1.49 ± 0.098	1.49 ± 0.098	1.5 ± 0.098	1.5 ± 0.099	1.5 ± 0.099	1.5 ± 0.099	1.5 ± 0.099
CCO [ethanol] + CCCCCCOCn1cc[n+](C)c1.O=S(=O)([N-]S(=O)(=O)C(F)(F)F)C(F)(F)F	1.59 ± 0.11	1.44 ± 0.09	1.31 ± 0.09	1.2 ± 0.08	1.1 ± 0.07	1.03 ± 0.06	0.952 ± 0.06	0.891 ± 0.057
CCO [ethanol] + CCCCCCOCn1cc[n+](COCCCCCC)c1.O=S(=O)([N-]S(=O)(=O)C(F)(F)F)C(F)(F)F	1.25 ± 0.08	1.14 ± 0.07	1.04 ± 0.065	0.958 ± 0.06	0.886 ± 0.056	0.824 ± 0.053	0.767 ± 0.05	0.719 ± 0.048
CCc1ccccc1 [ethylbenzene] + CCCCCCOCn1cc[n+](C)c1.O=S(=O)([N-]S(=O)(=O)C(F)(F)F)C(F)(F)F		1.49 ± 0.098	1.49 ± 0.098	1.49 ± 0.098	1.5 ± 0.098	1.5 ± 0.099	1.5 ± 0.099	1.5 ± 0.099
CCc1ccccc1 [ethylbenzene] + CCCCCCOCn1cc[n+](COCCCCCC)c1.O=S(=O)([N-]S(=O)(=O)C(F)(F)F)C(F)(F)F	0.967 ± 0.061	0.966 ± 0.061	0.965 ± 0.061	0.964 ± 0.061	0.963 ± 0.061	0.963 ± 0.061	0.962 ± 0.06	
CCCCCCC [heptane] + CCCCCCOCn1cc[n+](C)c1.O=S(=O)([N-]S(=O)(=O)C(F)(F)F)C(F)(F)F	10.6 ± 0.7	10 ± 0.7	9.51 ± 0.65	9.07 ± 0.62	8.65 ± 0.59	8.28 ± 0.56	7.95 ± 0.54	7.66 ± 0.52
CCCCCCC [heptane] + CCCCCCOCn1cc[n+](COCCCCCC)c1.O=S(=O)([N-]S(=O)(=O)C(F)(F)F)C(F)(F)F	3.94 ± 0.27	3.81 ± 0.26	3.68 ± 0.25	3.57 ± 0.24	3.46 ± 0.24	3.36 ± 0.23	3.27 ± 0.22	3.19 ± 0.22
C=CCCCC [hex-1-ene] + CCCCCCOCn1cc[n+](C)c1.O=S(=O)([N-]S(=O)(=O)C(F)(F)F)C(F)(F)F	4.89 ± 0.33	4.72 ± 0.32	4.59 ± 0.31	4.46 ± 0.3	4.33 ± 0.29	4.23 ± 0.29	4.12 ± 0.28	4.03 ± 0.27
C=CCCCC [hex-1-ene] + CCCCCCOCn1cc[n+](COCCCCCC)c1.O=S(=O)([N-]S(=O)(=O)C(F)(F)F)C(F)(F)F	2.25 ± 0.15	2.2 ± 0.15	2.15 ± 0.15	2.11 ± 0.14	2.07 ± 0.14	2.04 ± 0.14	2.01 ± 0.14	1.97 ± 0.13
CCCCCC [hexane] + CCCCCCOCn1cc[n+](C)c1.O=S(=O)([N-]S(=O)(=O)C(F)(F)F)C(F)(F)F	8.36 ± 0.57	7.96 ± 0.54	7.59 ± 0.52	7.27 ± 0.5	6.98 ± 0.48	6.71 ± 0.46	6.46 ± 0.44	6.24 ± 0.43
CCCCCC [hexane] + CCCCCCOCn1cc[n+](COCCCCCC)c1.O=S(=O)([N-]S(=O)(=O)C(F)(F)F)C(F)(F)F	3.22 ± 0.22	3.13 ± 0.21	3.04 ± 0.21	2.97 ± 0.2	2.9 ± 0.2	2.83 ± 0.19	2.77 ± 0.19	2.72 ± 0.19
CO [methanol] + CCCCCCOCn1cc[n+](C)c1.O=S(=O)([N-]S(=O)(=O)C(F)(F)F)C(F)(F)F	1.36 ± 0.09	1.24 ± 0.08	1.13 ± 0.07	1.04 ± 0.07	0.959 ± 0.06	0.894 ± 0.057	0.832 ± 0.054	0.775 ± 0.051
CO [methanol] + CCCCCCOCn1cc[n+](COCCCCCC)c1.O=S(=O)([N-]S(=O)(=O)C(F)(F)F)C(F)(F)F	1.17 ± 0.07	1.06 ± 0.067	0.978 ± 0.061	0.9 ± 0.057	0.834 ± 0.054	0.776 ± 0.051	0.725 ± 0.048	0.681 ± 0.046
